Experimental data reported in patent publication US20250312292A1, “PHARMACEUTICAL COMPOSITION FOR USE IN THERAPEUTIC OR PROPHYLACTIC METHOD FOR KIDNEY INJURY, COMBINED MEDICINE CONTAINING SAID PHARMACEUTICAL COMPOSITION, AND CCBL1 INHIBITOR” (FUJITA ACADEMY, priority 2022, published 2025).
Like-named read-outs stand apart in the source and are kept apart here.

Columns and labels:
[1] = target: T1, recombinant human CCBL1 (Homo sapiens, UniProt Q16773); test: Inhibition of CCBL1 beta-elimination activity by compound; type: biochemical; details: recombinant human CCBL1, compound at different concentrations
T1 construct: made in house; host or cells: Sf9 insect cells (baculovirus)
T1 sequence (Q16773 1-422): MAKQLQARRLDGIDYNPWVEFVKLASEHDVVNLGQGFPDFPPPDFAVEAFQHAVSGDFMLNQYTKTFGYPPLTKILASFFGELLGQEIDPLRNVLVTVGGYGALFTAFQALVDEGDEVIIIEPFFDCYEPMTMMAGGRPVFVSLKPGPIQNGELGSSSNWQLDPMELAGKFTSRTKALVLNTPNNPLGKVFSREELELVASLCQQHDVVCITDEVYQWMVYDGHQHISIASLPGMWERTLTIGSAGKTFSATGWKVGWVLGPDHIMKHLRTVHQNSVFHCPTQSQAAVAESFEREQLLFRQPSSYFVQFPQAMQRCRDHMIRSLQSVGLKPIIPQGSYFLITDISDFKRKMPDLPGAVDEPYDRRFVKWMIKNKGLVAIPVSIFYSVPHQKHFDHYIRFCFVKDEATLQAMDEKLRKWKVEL
Experimental: (§1) Sf9 cells infected with baculovirus containing human CCBL1 gene were centrifuged and thereby pelletized and dissolved in 50 mM phosphate buffer solution (pH 8.0) containing 300 mM NaCl and 10 mM imidazole. After ultrasonic treatment, the cell lysate was centrifuged at 10,000×g at 4° C. for 20 minutes, and recombinant CCBL1 in the supernatant was added to a pre-equalized Ni-NTA resin (QIAGEN). An enzyme/resin composite was transferred to a column and washed with a buffer solution containing 300 mM NaCl and 20 mM imidazole in 50 mM phosphate buffer solution (pH 8.0), and recombinant CCBL1 was eluted with a buffer solution (pH 8.0) containing 300 mM NaCl, 250 mM imidazole, and 50 mM phosphate. The enzyme fraction was pooled based on the purity determined by using SDS-PAGE and desalted by using a PD-10 column (GE Healthcare, U.K.)
The beta-elimination activity of CCBL1 was measured in accordance with a method described in “Arun Kumar Selvam et al., “A Novel Assay Method to Determine the—Elimination of Se-Methylselenocysteine to Monomethylselenol by Kynurenine Amino transferase 1” Antioxidants 2020, 9, 139; doi: 10. 3390/antiox 9020139″. […] Subsequently, 70 μL of the assay mixture was incubated at 37° C. for 10 minutes, 130 μL of 1M NaOH was added thereto, and the increase in the absorbance at 520 nm was measured by using a spectrophotometer (Nivo Multiplate Microplate Reader, PerkinElmer). […]

[2] = target: T2, recombinant CCBL1 (KAT1) (Homo sapiens, UniProt Q16773); test: Screening of KAT1 (CCBL1) inhibitory activity, L-kynurenine fluorescence assay; type: biochemical; details: for inhibition at 10 µM: 10 μM of the compound, 1 mM L-kynurenine, room temperature 2 hours; for CCBL1 (KAT1) inhibitory activity, in words: screening result
T2 construct: made in house; host or cells: Sf9 insect cells (baculovirus)
T2 sequence (Q16773 1-422): T1 sequence (Q16773 1-422)
Experimental: as §1
The CCBL1 inhibitory compound was obtained by screening KAT1 inhibitory activity of compounds included in a compound library (The Spectrum Collection) provided by Center for Supporting Drug Discovery and Life Science Research in Graduate School of Pharmaceutical Sciences, Osaka University. Here, 10 ng/μl recombinant CCBL, 1 mM L-kynurenine, 1 mM sodium pyruvate, 100 μM PLP, and 0.005% Tween 20 mixture solution contained in 150 mM of 2-amino-2-methyl-1-propanol buffer solution were added to a 384-well plate containing 10 μM of the compound and then incubated at room temperature for 2 hours. Subsequently, 20 μL of 300 mM zinc acetate solution was added thereto, and the fluorescent intensities at an excitation wavelength 340 nm and a fluorescent wavelength 460 nm were measured by Infinite M1000 plate reader (TECAN). The Control without containing the compound was defined as reaction 100%, the Background without containing any enzyme was defined as reaction 0%, and the inhibitory activity of the compound (Sample) was calculated based on the following equation.

[3] = system: cisplatin-induced kidney injury model mice; test: Cisplatin-induced kidney injury model mouse; details: for BUN level in serum / Cre level in serum: compound 25, 50, 100 mg/kg i.p. 30 minutes before cisplatin 20 mg/kg, third day
Experimental: (§5) To create cisplatin-induced kidney injury model mice, cisplatin (20 mg/kg) was administered once by intraperitoneal administration to male C57BL/6J mice with the body weight of 20 to 25 g (Japan SLC). To examine the kidney protection effect (prophylactic effect) of the compounds expressed by formulae (2) and (3) (hereafter, simply referred to as “compound”) on a cisplatin-induced kidney injury, the compound was intraperitoneally administered with doses of 0, 25, 50, and 100 mg/kg 30 minutes before the cisplatin injection. The mice were sacrificed on the third day after the cisplatin injection. Samples of the blood and the kidneys were taken and preserved at −80° C. for further analysis.
(§6) The levels of creatinine (Cre) and blood urea nitrogen (BUN) in serum were measured by using a fully automated blood biochemistry analyzer (BioMajesty JCA-BM9130) in accordance with a manufacturer-instructed method.

[4] = system: tumor allograft model mice; test: Tumor allograft model mouse (Lewis lung cancer cells); type: in vivo
Experimental: Tumors were measured by using vernier calipers, and tumor volumes were calculated as a product of length by width by width. After the tumor reached a certain size, the compound (100 mg/kg) was intraperitoneally administered 30 minutes before the intraperitoneal administration of 20 mg/kg of cisplatin.
Renal tubular damage was scored as follows.

[5] = system: cisplatin-induced kidney injury model mice; details: mouse, in vivo
Experimental: as §5, §6

[6] = system: CCBL1 overexpressed LLC/PK1 cells; test: Cell viability assay, cisplatin-induced renal tubular cell death; type: cell-based; details: 24 hours
Experimental: (§2) LLC/PK1 (pig kidney epithelium), LLC (Lewis lung cancer), and MDA-MB-231 (human breast cancer) cells were obtained from JCRB cell bank (Japan). The LLC/PK1 cells were transfected by a human CCBL1 expression vector, CCBL1 stable overexpression cells were cloned into CCBL1 overexpressed LLC/PK1 cells, which were used for further experiments. The CCBL1 overexpressed LLC/PK1 cells were proliferated in 199/EBSS culture medium (10% FBS, 1% penicillin/streptomycin, and 400 μg/ml of G418), and LLC and MDA-MB-231 cells were proliferated at 37° C. under humidified atmosphere of 5% CO2 in DMEM culture medium (10% FBS and 1% penicillin/streptomycin).
(§3) A cell viability assay kit was used to measure the cell viability. […] The absorbance at 490 nm was measured by using a microplate reader (Molecular Devices, USA). The cell viability was calculated as a value of the absorbance of treated cells relative to the absorbance of untreated cells.
(§4) To examine whether or not the compound X prevents cisplatin-induced renal uriniferous tubular cell death, CCBL1 overexpressed LLC/PK1 cells were treated with different concentrations of cisplatin and the compound X for 24 hours, and the cell viability was evaluated by cell proliferation assay. The expression amount of human CCBL1 in LLC-PK1 cells was determined by immunoblotting. […]

[7] = system: human breast cancer cell lines (MDA-MB-231 cells); test: Cell viability assay, cisplatin-induced tumor cell death; type: cell-based; details: with cisplatin, 24 hours
Experimental: as §2, §3, §4

[8] = system: Lewis lung cancer cell lines (LLC cells); test: as above; type: cell-based; details: with cisplatin, 24 hours
Experimental: as §2, §3, §4

[9] = both cisplatin and compound administered
[10] = compound plus cisplatin, tumor-bearing mice
[11] = compound and cisplatin versus cisplatin alone
[12] = cisplatin 20 mg/kg i.p. alone, tumor-bearing mice

In the case of `CCC(=O)c1c(O)cc(O)cc1O` [FLOPROPIONE, 1-(2,4,6-trihydroxyphenyl) propan-1-one], the “inhibitory activity to CCBL1 β elimination activity” value [1] is reported as “inhibited by flopropione in a concentration dependent manner”, the inhibition at 10 µM [2] is reported as 71.9% and the “BUN level in serum” value [3] is reported as “reduced Cre and BUN in a dose dependent manner”. The “Cre level in serum” value [3] was “reduced Cre and BUN in a dose dependent manner”, the “BUN level in serum, compound administered alone” value ([3]; compound alone, no cisplatin) was “no change was found in the Cre and BUN levels” and the “Cre level in serum, compound administered alone” value ([3]; compound alone, no cisplatin) was “no change was found in the Cre and BUN levels”.

In the case of `O=C(CCc1ccc(O)cc1)c1c(O)cc(O)cc1O` [PHLORETIN, 3-(4-hydroxyphenyl)-1-(2,4,6-trihydroxyphenyl) propan-1-one], the inhibition at 10 µM [2] is reported as 83% and the “CCBL1 (KAT1) inhibitory activity, in words” value [2] is reported as “has a CCBL1 inhibitory function”.

In the case of `COc1cc(O)c(C(C)=O)c(O)c1` [4-O-METHYLPHLORACETOPHENONE, 4-O-methylphloracetophenone, reference compound], the inhibition at 10 µM [2] is reported as 5.6% and the “CCBL1 (KAT1) inhibitory activity, in words” value [2] is reported as “exhibits little CCBL1 inhibitory activity”.

For `CC(=O)c1c(O)cc(O)cc1O` [compound X, 2,4,6-trihydroxyacetophenone], the body weight change [4, 9] was “the body weight changed little”, the relative kidney weight [4, 9] was “the relative kidney weight decreased” and the “tumor size reduction by cisplatin when compound is co-administered” value ([4]; compound 100 mg/kg i.p. 30 minutes before cisplatin 20 mg/kg) was “this effect did not change”. The “renal uriniferous tubular damage score” value ([4]; compound plus cisplatin versus cisplatin alone) was “reduces the renal uriniferous tubular damage score”, the “BUN concentration in serum” value [4, 10] was “reduced the increase in the cisplatin-induced BUN and Cre in a dose dependent manner” and the “Cre concentration in serum” value [4, 10] was “reduced the increase in the cisplatin-induced BUN and Cre in a dose dependent manner”. For the same molecule, the “inhibitory activity to CCBL1 β elimination activity” value [1] was “inhibited by the compound X in a concentration dependent manner”, the inhibition at 10 µM [2] was 88.6% and the “BUN level in serum, compound administered alone” value [5] was “no change in the Cre and BUN levels was found”. The “Cre level in serum, compound administered alone” value [5] was “no change in the Cre and BUN levels was found”, the “injury of renal uriniferous tubular cells, compound alone (histopathology)” value [5] was “does not injure renal uriniferous tubular cells” and the “LLC-PK1 cell death (cell viability) without cisplatin” value ([6]; cisplatin 0 μM) was “did not affect the LLC-PK1 cell death”. For the same molecule, the “cisplatin-induced renal tubular cell death (cell viability)” value ([6]; cisplatin 50 μM) was “prevented the cisplatin-induced renal tubular cell death in a dose dependent manner”, the relative kidney weight ([3]; both cisplatin (20 mg/kg i.p.) and compound administered) was “did not increase the relative kidney weight” and the “BUN level in serum” value [3] was “reduces the Cre and BUN levels in a dose dependent manner”. For the same molecule, the “Cre level in serum” value [3] was “reduces the Cre and BUN levels in a dose dependent manner”, the “BAX level in kidney (immunoblotting)” value [3, 11] was “decreased” and the “Cleaved Caspase-3 level in kidney (immunoblotting)” value [3, 11] was “decreased”. For the same molecule, the “cisplatin-induced renal tubular cell death (histopathological observation, PAS stain)” value ([3]; compound plus cisplatin) was “suppresses the cisplatin-induced renal tubular cell death in a dose dependent manner”, the tubular injury score ([3]; group of cisplatin and compound versus only cisplatin) was “lower tubular injury scores than the group of only cisplatin” and the “cisplatin-induced tumor cell death (cell viability)” value [7] was “did not affect the cisplatin-induced tumor cell death”. The “cisplatin-induced tumor cell death (cell viability)” value [8] was “did not affect the cisplatin-induced tumor cell death”.

With `N.N.[Cl][Pt][Cl]` [cisplatin] the “tumor size, cisplatin” value ([4]; cisplatin 20 mg/kg i.p.) was “reduced the tumor size”, the “body weight, cisplatin alone” value [4, 12] was “reduced the body weight” and the “relative kidney weight, cisplatin alone” value [4, 12] was “increased the relative kidney weight”. The “BUN level in serum, cisplatin alone” value ([3]; cisplatin 20 mg/kg i.p. alone) was “increased the Cre and BUN levels”, the “Cre level in serum, cisplatin alone” value ([3]; cisplatin 20 mg/kg i.p. alone) was “increased the Cre and BUN levels” and the “body weight, cisplatin alone” value ([3]; cisplatin 20 mg/kg i.p. alone) was “reduced the body weight”. For the same molecule, the “relative kidney weight, cisplatin alone” value ([3]; cisplatin 20 mg/kg i.p. alone) was “increased the relative kidney weight”.
